Tests used:
[1] = biological target: T1, EcClpB (Escherichia coli, UniProt P63284); test: phosphate release ATPase assay; assay type: biochemical; conditions: 5 mM ATP, 10 mM MgCl2, 100 mM Tris/HCl pH 8.0, 37 °C; basal activity
T1 construct: gene clpB; purified, produced or obtained as previously described; hexamer

[2] = biological target: T2, EhClpB (Ehrlichia chaffeensis, UniProt Q2GH96); conditions: 5 mM ATP, 10 mM MgCl2, 100 mM Tris/HCl pH 8.0, 37 °C; basal activity
T2 construct: gene clpB

[3] = biological target: T1, EcClpB; test: filter retention with SDS-PAGE, nucleotide-induced binding to aggregated G6PDH; conditions: 6 mM nucleotide, 20 mM Mg(OAc)2, 50 mM Tris/HCl pH 7.5, 30 °C; indirect read-out
[4] = biological target: ClpB from Ehrlichia chaffeensis (E. chaffeensis); test: AUC; sedimentation velocity, 48,000 rpm, 20°C, 0.3 mg/ml protein in 50 mM Hepes/KOH pH 7.5, 0.2 M KCl, 20 mM MgCl2, 1 mM EDTA, 2 mM β-mercaptoethanol, with 2 mM ATPγS

T1 sequence (P63284 whole entry): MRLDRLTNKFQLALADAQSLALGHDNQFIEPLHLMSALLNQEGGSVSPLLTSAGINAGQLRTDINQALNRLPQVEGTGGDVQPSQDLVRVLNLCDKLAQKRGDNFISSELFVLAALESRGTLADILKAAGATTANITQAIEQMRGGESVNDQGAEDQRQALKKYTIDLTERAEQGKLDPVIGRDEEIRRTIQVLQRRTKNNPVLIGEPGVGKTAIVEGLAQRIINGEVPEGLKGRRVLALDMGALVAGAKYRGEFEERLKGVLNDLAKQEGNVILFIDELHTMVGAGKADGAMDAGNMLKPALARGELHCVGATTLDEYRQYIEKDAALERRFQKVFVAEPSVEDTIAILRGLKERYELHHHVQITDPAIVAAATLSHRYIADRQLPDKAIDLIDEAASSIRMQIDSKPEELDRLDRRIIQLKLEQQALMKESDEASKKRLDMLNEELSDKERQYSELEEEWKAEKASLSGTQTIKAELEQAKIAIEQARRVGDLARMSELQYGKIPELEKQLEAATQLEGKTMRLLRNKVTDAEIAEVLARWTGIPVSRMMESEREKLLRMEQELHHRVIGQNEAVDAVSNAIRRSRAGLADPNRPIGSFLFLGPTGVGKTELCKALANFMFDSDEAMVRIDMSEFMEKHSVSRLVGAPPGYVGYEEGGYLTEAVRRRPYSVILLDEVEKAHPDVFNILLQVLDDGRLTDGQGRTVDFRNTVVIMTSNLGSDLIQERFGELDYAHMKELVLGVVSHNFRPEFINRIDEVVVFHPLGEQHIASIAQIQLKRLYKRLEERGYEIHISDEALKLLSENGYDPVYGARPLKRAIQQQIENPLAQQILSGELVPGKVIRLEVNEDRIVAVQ
T2 sequence (Q2GH96 entry or part of it): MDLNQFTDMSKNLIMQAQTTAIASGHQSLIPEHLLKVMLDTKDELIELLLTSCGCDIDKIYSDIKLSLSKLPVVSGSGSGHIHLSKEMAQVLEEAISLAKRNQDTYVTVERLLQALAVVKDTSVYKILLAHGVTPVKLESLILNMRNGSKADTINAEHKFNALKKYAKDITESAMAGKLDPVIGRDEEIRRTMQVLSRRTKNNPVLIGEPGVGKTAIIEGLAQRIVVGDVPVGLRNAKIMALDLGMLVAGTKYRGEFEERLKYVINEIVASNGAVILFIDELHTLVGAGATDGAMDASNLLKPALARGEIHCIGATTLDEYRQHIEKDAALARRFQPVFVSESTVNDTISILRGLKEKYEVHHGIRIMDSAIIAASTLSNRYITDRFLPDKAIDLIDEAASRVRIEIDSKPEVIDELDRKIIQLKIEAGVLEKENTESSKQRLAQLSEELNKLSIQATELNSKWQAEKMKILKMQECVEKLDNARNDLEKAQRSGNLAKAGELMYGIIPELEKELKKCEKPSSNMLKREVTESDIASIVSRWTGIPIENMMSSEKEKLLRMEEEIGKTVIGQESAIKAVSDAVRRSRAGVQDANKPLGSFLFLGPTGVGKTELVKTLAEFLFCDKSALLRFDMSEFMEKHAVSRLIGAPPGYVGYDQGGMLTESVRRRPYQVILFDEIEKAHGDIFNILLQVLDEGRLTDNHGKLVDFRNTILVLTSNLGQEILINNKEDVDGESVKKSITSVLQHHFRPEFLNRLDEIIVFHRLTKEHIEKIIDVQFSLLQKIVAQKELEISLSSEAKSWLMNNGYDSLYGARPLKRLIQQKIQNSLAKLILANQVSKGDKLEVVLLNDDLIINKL

## Nc1ncnc2c1ncn2[C@@H]1O[C@H](COP(=O)(O)OP(=O)(O)OP(=O)(O)O)[C@@H](O)[C@H]1O [ATP]
[1]
  phosphate release ATPase assay: the basal ATPase of EhClpB was similar to that of the purified EcClpB
[2]
  phosphate release ATPase assay: the basal ATPase of EhClpB was similar to that of the purified EcClpB

## Nc1ncnc2c1ncn2[C@@H]1O[C@H](COP(=O)(O)OP(=O)(O)OP(O)(O)=S)[C@@H](O)[C@H]1O [ATPγS, adenosine-5'-(γ-thio)-triphosphate]
[3]
  filter retention with SDS-PAGE, nucleotide-induced binding to aggregated G6PDH: only ATPγS induces significant binding of EcClpB to the aggregates

## ClpB from Ehrlichia chaffeensis (natural protein)
[4]
  stoichiometry N: 6
